Reference: US9675638B2, “Use of tungsten (VI) salts for the treatment of female infertility in non-diabetic mammals” (OXOLIFE, S.L., priority 2013, dated 2017)
Where “and” joins values, the source holds several entries; their conditions need not be identical. Equal values may be shown once. Where a name gives a salt, the structure may show the parent alone.

Tests used:
[1] = system: women whose ovulation is irregular or absent; settings: cited from earlier work
IRS2−/− female mice [2] = test: Ovulation study: phase of the estrous cycle by vaginal smears (Papanicolaou); type: in vivo, mouse; set-up: key to phase of the estrous cycle: A: anestrus; D: diestrus; P: proestrus; E: estrus; M: metestrus; settings: for phase of the estrous cycle: individual IRS2−/− female mice, dihydrate
Source text: (§1) 10 IRS2^−/− female mice of ages comprised between 6 and 8 weeks. 6 “wild-type” (IRS2^wt) male mice of ages comprised between 6 and 8 weeks.
(§2) The female and male mice were housed separately in normal conditions, i.e., 12-hour light/darkness cycle and controlled moisture and temperature. The animals were voluntarily fed (also named ad libitum) with a standard feed diet.
(§3) After a period of acclimation, the IRS2^−/− female mice were housed in groups of 4-6 mice/cage. Tungstate-free drinking water was administered to the animals during the pre-treatment phase (2 weeks).
(§4) Sodium tungstate was administered in the drinking water (ad libitum) by means of a 2 mg/ml solution of sodium tungstate dihydrate (marketed by Carlo Erba) in distilled water after the pre-treatment phase (day 0 of treatment) and up to 4 weeks before sacrificing the animals. The daily dose of sodium tungstate ingested by the mice is about 180 mg/kg of body weight.
During the pre-treatment period and during the first 3 weeks of treatment, vaginal smears were performed in 6 randomly chosen female mice on days −8; −5; −2; −1; 7; 8; 14; 15 and 22 to determine the phase of the estrous cycle they were in.
Between […] of saline solution was introduced into the vagina of the mice with a Pasteur pipette. The vaginal exudate was collected with the same pipette and deposited on a slide. Once air-dried, it was fixed and stained with the Papanicolaou technique.
The Papanicolaou technique comprises staining the vaginal smears fixed on the slide as follows: • 10 immersions in 50% v/v alcohol; • immersing in Harris hematoxylin solution for 3 minutes; • rinsing with running water; • 10 immersions in acid alcohol (1% hydrochloric acid); • rinsing with running water; • 10 immersions in 95% v/v alcohol; • immersing in OG-6 solution for 30 seconds; • 10 immersions in 96% v/v alcohol; • immersing in eosin solution for 1 minute; • 10 immersions in 96% v/v alcohol; • 10 immersions in 86% v/v alcohol; and • 10 immersions in xylol.
The preparations were analyzed by trained staff using a code in a single-blind manner to eliminate observer bias.
The samples were identified in the following phases: diestrus, proestrus, estrus, metestrus, anestrus or non-evaluable. The cyclicality of the four phases in periods of 4 to 6 days is an indicator of a normal estrous cycle, whereas the absence of this cyclicality and the persistence in anestrus, diestrus or proestrus phases are indicators of the absence of the estrous cycle.

[3] = system: female rats with streptozotocin-induced diabetes; settings: cited from earlier work
[4] = Glycemia study (blood glucose after 6 hours of fasting, glucose sensor); type: in vivo, mouse; settings: for glycemia, Average: average of 6 IRS2−/− female mice; for variation in glycemia during administration: first 12 days of treatment, IRS2−/− female mice; for variation in glycemia during administration / glycemia: dihydrate; for glycemia: individual IRS2−/− female mice
Procedure: (§5) 6 IRS2^−/− female mice of ages comprised between 6 and 8 weeks.
(§6) The female mice were housed in normal conditions, i.e., 12-hour light/darkness cycle and controlled moisture and temperature. The animals were voluntarily fed (also named ad libitum) with a standard feed diet.
(§7) After a period of acclimation, sodium tungstate was administered in the drinking water (ad libitum) by means of a 2 mg/ml solution of sodium tungstate dihydrate (marketed by Carlo Erba) in distilled water after the pre-treatment phase (day 0 of treatment) and for 12 days.
(§8) Body weight was monitored on day 0, 2, 5, 7, 9 and 12 of the treatment period, and after 6 hours of fasting on each of the aforementioned days blood glucose was determined by means of withdrawing blood from the tail vein and with a glucose sensor (Roche AccuTrend Glucose Sensor. Mannheim, Germany).

Body weight study = type: in vivo, mouse; settings: for Body weight, Average: average of 6 IRS2−/− female mice; for variation in body weight during administration: first 12 days of treatment, IRS2−/− female mice; for variation in body weight during administration / Body weight: dihydrate; for Body weight: individual IRS2−/− female mice
Procedure: as §5, §6, §7, §8

IRS2−/− female mice [5] = test: Implantation and pregnancy study after mating with IRS2wt male mice; type: in vivo, mouse; settings: for mean number of young/implanted embryos per female mouse pregnancy: treated IRS2−/− female mice
Source text: as §1, §2, §3, §4
After the first three weeks of treatment, the IRS2^−/− female mice were housed in cages in pairs together with an IRS2^wt male mouse continuously.
The mice were observed daily in search of signs of pregnancy or birth. After 4 weeks, the male mice were exchanged between the cages and kept in said cages for another 4 weeks.
The administration of tungstate was maintained for the 8 weeks in which the male and female mice were housed together. After these 8 weeks, treatment was withdrawn and the male and female mice were housed together for 4 additional weeks.
After this period lapsed, the female mice were sacrificed and biopsied in search of indications of pregnancy.
After the mating period of the method in section B lapsed, the female mice were sacrificed and biopsied in search of indications of pregnancy.

[6] = individual treated IRS2−/− female mice, dihydrate

CCN(CC)CCOc1ccc(C(=C(Cl)c2ccccc2)c2ccccc2)cc1 [clomiphene citrate]
pregnancy rate [1]: ≤ 50%
restoring ovulation [1]: high percentage

O.O.[Na+].[Na+].[O]=[W](=[O])([O-])[O-] [sodium tungstate, sodium tungstate dihydrate]
phase of the estrous cycle (IRS2−/− female mice [2]; day 7 of treatment, 2 mg/ml in drinking water (about 180 mg/kg/day)): M and E (4×) and E-M
phase of the estrous cycle (IRS2−/− female mice [2]; day 8 of treatment, 2 mg/ml in drinking water): M and E-M (3×) and E (2×)
phase of the estrous cycle (IRS2−/− female mice [2]; day 14 of treatment, 2 mg/ml in drinking water): E and E-M (3×) and D
phase of the estrous cycle (IRS2−/− female mice [2]; day 15 of treatment, 2 mg/ml in drinking water): D and E (2×) and M (2×) and A
phase of the estrous cycle (IRS2−/− female mice [2]; day 22 of treatment, 2 mg/ml in drinking water): D (2×) and A (2×) and M and P
recovery of the estrous cycle, percentage of analyzed mice (IRS2−/− female mice [2]; infertile non-diabetic IRS2−/− female mice, on the seventh day of treatment): 100%
circulating insulin levels ([3]; rats with streptozotocin-induced insulinopenia and diabetes, prolonged treatment (10 weeks)): partially recover
percentage of births with respect to the number of positive curettages ([3]; streptozotocin-diabetic females after 10 weeks of treatment, mated with healthy males (non-diabetic 100%)): 66%
glycemia, Average ([4]; Day 0 (start of treatment)): 128.17 mg/dL
glycemia, Average ([4]; Day 2): 117.33 mg/dL
glycemia, Average ([4]; Day 5): 122.33 mg/dL
glycemia, Average ([4]; Day 7): 118.83 mg/dL
glycemia, Average ([4]; Day 9): 125.17 mg/dL
glycemia, Average ([4]; Day 12): 118.83 mg/dL
variation in glycemia during administration [4]: no variations are observed
variation in glycemia during administration ([4]; listed as tungsten (VI) salt): does not modify
glycemia ([4]; Day 0 (start of treatment), 6 h fasting): 146 mg/dL and 129 mg/dL and 115 mg/dL and 126 mg/dL and 141 mg/dL and 112 mg/dL
glycemia ([4]; Day 2, 6 h fasting): 136 mg/dL and 128 mg/dL and 118 mg/dL and 110 mg/dL and 105 mg/dL and 107 mg/dL
glycemia ([4]; Day 5, 6 h fasting): 125 mg/dL and 142 mg/dL and 114 mg/dL and 111 mg/dL and 137 mg/dL and 105 mg/dL
glycemia ([4]; Day 7, 6 h fasting): 140 mg/dL and 110 mg/dL and 106 mg/dL and 89 mg/dL and 133 mg/dL and 135 mg/dL
glycemia ([4]; Day 9, 6 h fasting): 125 mg/dl (2×) and 153 mg/dl and 109 mg/dl and 108 mg/dl and 131 mg/dl
glycemia ([4]; Day 12, 6 h fasting): 136 mg/dL and 116 mg/dL and 111 mg/dL and 86 mg/dL and 123 mg/dL and 141 mg/dL
Body weight, Average (Body weight study; Day 0 (start of treatment)): 17.03 g
Body weight, Average (Body weight study; Day 2): 17.33 g
Body weight, Average (Body weight study; Day 5): 16.97 g
Body weight, Average (Body weight study; Day 7): 16.84 g
Body weight, Average (Body weight study; Day 9): 17.35 g
Body weight, Average (Body weight study; Day 12): 17.72 g
variation in body weight during administration (Body weight study): no variations are observed
variation in body weight during administration (Body weight study; listed as tungsten (VI) salt): does not modify
Body weight (Body weight study; Day 0 (start of treatment)): 22.7 g and 15.33 g and 18.21 g and 16.5 g and 13.99 g and 15.45 g
Body weight (Body weight study; Day 2): 22.9 g and 14.84 g and 18.98 g and 17.01 g and 14.18 g and 16.04 g
Body weight (Body weight study; Day 5): 22.61 g and 14.89 g and 18.2 g and 16.61 g and 13.79 g and 15.72 g
Body weight (Body weight study; Day 7): 22.42 g and 15.07 g and 17.81 g and 16.35 g and 13.74 g and 15.66 g
Body weight (Body weight study; Day 9): 22.85 g and 15.56 g and 17.9 g and 16.89 g and 14.5 g and 16.39 g
Body weight (Body weight study; Day 12): 23.15 g and 15.91 g and 18.24 g and 17.19 g and 14.92 g and 16.89 g
Pregnancy (IRS2−/− female mice [5]; individual treated IRS2−/− female mice, mated with IRS2wt males, dihydrate): YES
Number of implanted embryos or young born (embryos) (IRS2−/− female mice [5]; [6]): 7 embryos (3×) and 6 embryos
Number of implanted embryos or young born (young) (IRS2−/− female mice [5]; [6]): 8 young (2×) and 1 young and 3 young
pregnancy rate (IRS2−/− female mice [5]; treated IRS2−/− female mice (untreated 9%)): 80%
mean number of young/implanted embryos per female mouse pregnancy (IRS2−/− female mice [5]; dihydrate): about 5
mean number of young/implanted embryos per female mouse pregnancy (IRS2−/− female mice [5]; listed as tungsten (VI) salt, dihydrate): 5
